Reference: patent US10351575B2, “Bicyclic urea, thiourea, guanidine and cyanoguanidine compounds useful for the treatment of pain” (Array BioPharma Inc., priority 2012, dated 2019)

What was measured:
[1] = molecular target: Rsk4 (Homo sapiens (Human), UniProt Q9UK32); assay: KinaseProfiler off-target kinase profiling; type: biochemical; conditions: 10 μM, ATP near Km
Summary of the method: (§1)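 First, compound is added at 10 μM to each kinase reaction containing ATP around the Km. Second, reactions are run in duplicate. Finally, residual activity is expressed relative to control and the two values are averaged.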

[2] = molecular target: p38alpha (Homo sapiens (Human), UniProt Q16539); assay: KinaseProfiler off-target kinase profiling; type: biochemical; conditions: 10 μM, ATP near Km
Chain of p38alpha (Q16539 whole entry): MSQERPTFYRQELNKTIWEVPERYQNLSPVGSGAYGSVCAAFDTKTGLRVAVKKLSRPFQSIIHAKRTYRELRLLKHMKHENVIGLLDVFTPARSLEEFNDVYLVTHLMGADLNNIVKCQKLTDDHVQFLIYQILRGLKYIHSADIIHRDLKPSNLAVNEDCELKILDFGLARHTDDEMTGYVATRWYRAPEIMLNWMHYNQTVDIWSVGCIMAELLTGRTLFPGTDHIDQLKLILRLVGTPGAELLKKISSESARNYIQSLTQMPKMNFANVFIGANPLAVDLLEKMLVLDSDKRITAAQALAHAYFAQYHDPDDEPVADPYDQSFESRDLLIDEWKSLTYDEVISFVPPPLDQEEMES
Summary of the method: as §1

Chain of Rsk4 (Q9UK32 whole entry): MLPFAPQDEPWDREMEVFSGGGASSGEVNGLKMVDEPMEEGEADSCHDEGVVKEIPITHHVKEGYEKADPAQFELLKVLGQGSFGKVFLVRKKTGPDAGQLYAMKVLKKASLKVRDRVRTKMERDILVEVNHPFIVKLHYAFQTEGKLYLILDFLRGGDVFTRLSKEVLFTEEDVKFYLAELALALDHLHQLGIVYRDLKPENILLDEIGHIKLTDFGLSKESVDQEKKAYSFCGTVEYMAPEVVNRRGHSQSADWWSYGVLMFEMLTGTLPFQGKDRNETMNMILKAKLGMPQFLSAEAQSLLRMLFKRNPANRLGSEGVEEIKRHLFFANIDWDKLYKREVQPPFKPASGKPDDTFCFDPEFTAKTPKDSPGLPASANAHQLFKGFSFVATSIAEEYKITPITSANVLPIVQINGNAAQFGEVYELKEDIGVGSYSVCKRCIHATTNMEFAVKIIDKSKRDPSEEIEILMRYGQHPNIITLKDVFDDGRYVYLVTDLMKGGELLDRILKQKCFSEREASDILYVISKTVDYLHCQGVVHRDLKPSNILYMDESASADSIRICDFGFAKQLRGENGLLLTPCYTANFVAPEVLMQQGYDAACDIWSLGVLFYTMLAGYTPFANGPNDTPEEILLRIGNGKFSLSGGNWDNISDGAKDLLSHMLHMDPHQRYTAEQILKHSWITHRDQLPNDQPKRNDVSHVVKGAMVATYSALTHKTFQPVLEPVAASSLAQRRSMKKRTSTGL

Row | SMILES | Avg. POC [1] [POC] | Avg. POC [2] [POC]
1 | Cc1c(-c2cnn(C)c2)nn(-c2ccccc2)c1NC(=O)N[C@H]1CCCc2ccccc21 [Example 2, (S)-1-(1′,4-dimethyl-1-phenyl-1H,1′H-3,4′-bipyrazol-5-yl)-3-(1,2,3,4-tetrahydronaphthalen-1-yl)urea] | 140 | 102.5
2 | Cc1c(-c2cnn(C)c2)nn(-c2ccccc2)c1NC(=O)NC1CCOc2cc(F)ccc21 (centres unmarked) [Example 12, 1-(1′,4-dimethyl-1-phenyl-1H,1′H-[3,4′-bipyrazol]-5-yl)-3-(7-fluorochroman-4-yl)urea] | 101 | 110
3 | Cc1c(-c2ccc(=O)n(C)c2)nn(-c2ccccc2)c1NC(=O)NC1CN(CC(F)(F)F)Cc2ccccc21 (centres unmarked) [Example 26, 1-(4-methyl-3-(1-methyl-6-oxo-1,6-dihydropyridin-3-yl)-1-phenyl-1H-pyrazol-5-yl)-3-(2-(2,2,2-trifluoroethyl)-1,2,3,4-tetrahydroisoquinolin-4-yl)urea] | 99.5 | 104.5
4 | COCc1ccc2c(c1)C(NC(=O)Nc1c(C)c(-c3cnn(C)c3)nn1-c1ccccc1)COC2 (centres unmarked) [Example 32, 1-(1′,4-dimethyl-1-phenyl-1H,1′H-[3,4′-bipyrazol]-5-yl)-3-(6-(methoxymethyl)isochroman-4-yl)urea] | 95 | 96.5
